Experimental data reported in US8487107B2, “Biphenyl compounds useful as muscarinic receptor antagonists” (Theravance, Inc., priority 2005, dated 2013).
Structures can show the parent of a compound that is named as a salt.

Experiments:
[1] = DSC thermal analysis (thermal decomposition); type: physicochemical; conditions: DSC trace, heating ramp 10° C./min
Description: DSC was performed using a TA Instruments Model Q-10 module with a Thermal Analyst controller, and data were collected and analyzed using TA Instruments Thermal Solutions software. A sample of about 1 mg of the crystalline diacetate salt was accurately weighed into an aluminum pan with lid, and evaluated using a linear heating ramp of 10° C./min from ambient temperature to approximately 300° C. The DSC cell was purged with dry nitrogen during use. A representative DSC trace for this salt is shown in FIG. 2 and depicts one transition at about 114° C., no thermal decomposition below about 160° C., and maximum endothermic heat flow at about 112° C.

[2] = Dynamic moisture sorption (DMS) assessment; type: physicochemical
Description: A dynamic moisture sorption (DMS) assessment (also known as a moisture sorption-desorption profile) was performed for samples of the crystalline diacetate salt using a VTI atmospheric microbalance, SGA-100 system (VTI Corp., Hialeah, Fla. 33016). A sample size of approximately 10 mg was used and the humidity was set at the ambient value at the start of the analysis. A typical DMS analysis consisted of three scans: ambient to 2% relative humidity (RH), 2% RH to 90% RH, 90% RH to 5% RH at a scan rate of 5% RH/step. The mass was measured every two minutes and the RH was changed to the next value (+/−5% RH) when the mass of the sample was stable to within 0.01% for 5 consecutive points.

SMILES | no thermal decomposition below (DSC) [1] [°C] | weight gain when exposed to up to 90% RH (DMS, reversible sorption/desorption profile) [2]
CN(CCN1CCC(OC(=O)Nc2ccccc2-c2ccccc2)CC1)C(=O)c1cccc(C(=O)NCCNCc2ccc(O)cc2)c1 [crystalline diacetate salt, biphenyl-2-ylcarbamic acid 1-[2-({3-[2-(4-hydroxybenzylamino)ethylcarbamoyl]benzoyl}methylamino)ethyl]piperidin-4-yl ester] | ≥ 160 | less than 18%
CN(CCN1CCC(OC(=O)Nc2ccccc2-c2ccccc2)CC1)C(=O)c1cccc(C(=O)NCCNCc2ccc(O)cc2)c1 [crystalline dipropionate salt, Biphenyl-2-ylcarbamic Acid 1-[2-({3-[2-(4-Hydroxybenzylamino)ethylcarbamoyl]benzoyl}methylamino)ethyl]piperidin-4-yl Ester] | ≥ 150 | less than 11%
CN(CCN1CCC(OC(=O)Nc2ccccc2-c2ccccc2)CC1)C(=O)c1cccc(C(=O)NCCNCc2ccc(O)cc2)c1 [crystalline monooxalate salt, Biphenyl-2-ylcarbamic Acid 1-[2-({3-[2-(4-Hydroxybenzylamino)ethylcarbamoyl]benzoyl}methylamino)ethyl]piperidin-4-yl Ester] | ≥ 150 | less than 14%
